Assay results published in PubChem BioAssay (NCI).
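1) Cells in 96-well plates. 2) Compound, 48 h, 5 concentrations. 3) Linear interpolation between surrounding doses. 4) Unreached endpoint = highest concentration. Here, GI50 denotes the concentration required for 50% inhibition of growth. TGI denotes the concentration required for complete inhibition of growth.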

Legend:
Assay in all cases: growth of human tumour cells (NCI), 48 h
786-0 renal = tested on: 786-0 renal
A498 renal = tested on: A498 renal
A549 NSCLC = tested on: A549 NSCLC
ACHN renal = tested on: ACHN renal
BT-549 breast = tested on: BT-549 breast
CAKI-1 renal = tested on: CAKI-1 renal
CCRF-CEM leukemia = tested on: CCRF-CEM leukemia
COLO 205 colon = tested on: COLO 205 colon
DU-145 prostate = tested on: DU-145 prostate
EKVX NSCLC = tested on: EKVX NSCLC
HCC-2998 colon = tested on: HCC-2998 colon
HCT-116 colon = tested on: HCT-116 colon
HCT-15 colon = tested on: HCT-15 colon
HOP-62 NSCLC = tested on: HOP-62 NSCLC
HOP-92 NSCLC = tested on: HOP-92 NSCLC
HT29 colon = tested on: HT29 colon
IGROV1 ovarian = tested on: IGROV1 ovarian
K-562 leukemia = tested on: K-562 leukemia
KM12 colon = tested on: KM12 colon
LOX IMVI melanoma = tested on: LOX IMVI melanoma
M14 melanoma = tested on: M14 melanoma
MALME-3M melanoma = tested on: MALME-3M melanoma
MCF7 breast = tested on: MCF7 breast
MDA-MB-231 breast = tested on: MDA-MB-231 breast
MDA-MB-435 = tested on: MDA-MB-435
MOLT-4 leukemia = tested on: MOLT-4 leukemia
NCI-H226 lung = tested on: NCI-H226 lung
NCI-H23 lung = tested on: NCI-H23 lung
NCI-H460 lung = tested on: NCI-H460 lung
NCI-H522 lung = tested on: NCI-H522 lung
NCI/ADR-RES ovarian = tested on: NCI/ADR-RES ovarian
OVCAR-3 ovarian = tested on: OVCAR-3 ovarian
OVCAR-4 ovarian = tested on: OVCAR-4 ovarian
OVCAR-8 ovarian = tested on: OVCAR-8 ovarian
PC-3 prostate = tested on: PC-3 prostate
RXF 393 renal = tested on: RXF 393 renal
SF-268 CNS = tested on: SF-268 CNS
SF-295 CNS = tested on: SF-295 CNS
SF-539 CNS = tested on: SF-539 CNS
SK-MEL-2 melanoma = tested on: SK-MEL-2 melanoma
SK-MEL-28 melanoma = tested on: SK-MEL-28 melanoma
SK-MEL-5 melanoma = tested on: SK-MEL-5 melanoma
SK-OV-3 ovarian = tested on: SK-OV-3 ovarian
SN12C renal = tested on: SN12C renal
SNB-19 CNS = tested on: SNB-19 CNS
SNB-75 CNS = tested on: SNB-75 CNS
SW-620 colon = tested on: SW-620 colon
T-47D breast = tested on: T-47D breast
TK-10 renal = tested on: TK-10 renal
U251 CNS = tested on: U251 CNS
UACC-257 melanoma = tested on: UACC-257 melanoma
UACC-62 melanoma = tested on: UACC-62 melanoma
UO-31 renal = tested on: UO-31 renal
OVCAR-5 ovarian = tested on: OVCAR-5 ovarian
HL-60(TB) leukemia = tested on: HL-60(TB) leukemia
HS 578T breast = tested on: HS 578T breast
RPMI-8226 leukemia = tested on: RPMI-8226 leukemia
SR leukemia = tested on: SR leukemia

## COC(=O)c1ccc(-c2nc3cc(Cl)c(Cl)cc3nc2C#N)cc1
786-0 renal
  GI50: > 100 µM
  TGI: > 100 µM
A498 renal
  GI50: > 100 µM
  TGI: > 100 µM
A549 NSCLC
  GI50: > 100 µM
  TGI: > 100 µM
ACHN renal
  GI50: > 100 µM
  TGI: > 100 µM
BT-549 breast
  GI50: > 100 µM
  TGI: > 100 µM
CAKI-1 renal
  GI50: > 100 µM
  TGI: > 100 µM
CCRF-CEM leukemia
  GI50: 31.6 µM
  TGI: > 100 µM
COLO 205 colon
  GI50: > 100 µM
  TGI: > 100 µM
DU-145 prostate
  GI50: > 100 µM
  TGI: > 100 µM
EKVX NSCLC
  GI50: > 100 µM
  TGI: > 100 µM
HCC-2998 colon
  GI50: > 100 µM
  TGI: > 100 µM
HCT-116 colon
  GI50: > 100 µM
  TGI: > 100 µM
HCT-15 colon
  GI50: > 100 µM
  TGI: > 100 µM
HOP-62 NSCLC
  GI50: 82.4 µM
  TGI: > 100 µM
HOP-92 NSCLC
  GI50: 79 µM
  TGI: > 100 µM
HT29 colon
  GI50: > 100 µM
  TGI: > 100 µM
IGROV1 ovarian
  GI50: > 100 µM
  TGI: > 100 µM
K-562 leukemia
  GI50: > 100 µM
  TGI: > 100 µM
KM12 colon
  GI50: > 100 µM
  TGI: > 100 µM
LOX IMVI melanoma
  GI50: > 100 µM
  TGI: > 100 µM
M14 melanoma
  GI50: > 100 µM
  TGI: > 100 µM
MALME-3M melanoma
  GI50: > 100 µM
  TGI: > 100 µM
MCF7 breast
  GI50: > 100 µM
  TGI: > 100 µM
MDA-MB-231 breast
  GI50: > 100 µM
  TGI: > 100 µM
MDA-MB-435
  GI50: > 100 µM
  TGI: > 100 µM
MOLT-4 leukemia
  GI50: > 100 µM
  TGI: > 100 µM
NCI-H226 lung
  GI50: > 100 µM
  TGI: > 100 µM
NCI-H23 lung
  GI50: > 100 µM
  TGI: > 100 µM
NCI-H460 lung
  GI50: > 100 µM
  TGI: > 100 µM
NCI-H522 lung
  GI50: > 100 µM
  TGI: > 100 µM
NCI/ADR-RES ovarian
  GI50: > 100 µM
  TGI: > 100 µM
OVCAR-3 ovarian
  GI50: > 100 µM
  TGI: > 100 µM
OVCAR-4 ovarian
  GI50: > 100 µM
  TGI: > 100 µM
OVCAR-8 ovarian
  GI50: > 100 µM
  TGI: > 100 µM
PC-3 prostate
  GI50: > 100 µM
  TGI: > 100 µM
RXF 393 renal
  GI50: > 100 µM
  TGI: > 100 µM
SF-268 CNS
  GI50: > 100 µM
  TGI: > 100 µM
SF-295 CNS
  GI50: > 100 µM
  TGI: > 100 µM
SF-539 CNS
  GI50: > 100 µM
  TGI: > 100 µM
SK-MEL-2 melanoma
  GI50: > 100 µM
  TGI: > 100 µM
SK-MEL-28 melanoma
  GI50: > 100 µM
  TGI: > 100 µM
SK-MEL-5 melanoma
  GI50: > 100 µM
  TGI: > 100 µM
SK-OV-3 ovarian
  GI50: > 100 µM
  TGI: > 100 µM
SN12C renal
  GI50: > 100 µM
  TGI: > 100 µM
SNB-19 CNS
  GI50: > 100 µM
  TGI: > 100 µM
SNB-75 CNS
  GI50: > 100 µM
  TGI: > 100 µM
SW-620 colon
  GI50: > 100 µM
  TGI: > 100 µM
T-47D breast
  GI50: > 100 µM
  TGI: > 100 µM
TK-10 renal
  GI50: > 100 µM
  TGI: > 100 µM
U251 CNS
  GI50: 42 µM
  TGI: > 100 µM
UACC-257 melanoma
  GI50: > 100 µM
  TGI: > 100 µM
UACC-62 melanoma
  GI50: > 100 µM
  TGI: > 100 µM
UO-31 renal
  GI50: > 100 µM
  TGI: > 100 µM

## Cc1cc2c(cc1C)[n+](Cc1ccc3ccccc3c1)cn2Cc1ccc2ccccc2c1
ACHN renal
  GI50: 1.65 µM
  TGI: 3.08 µM
NCI/ADR-RES ovarian
  GI50: 6.6 µM
  TGI: 64.4 µM
OVCAR-5 ovarian
  GI50: 1.13 µM
  TGI: 2.43 µM
SK-MEL-5 melanoma
  GI50: 1.05 µM
  TGI: 2.23 µM
SK-OV-3 ovarian
  GI50: 1.5 µM
  TGI: 2.9 µM
UACC-62 melanoma
  GI50: 0.459 µM
  TGI: 1.79 µM

## NS(=O)(=O)c1ccc(-n2nc(-c3ccc(Cl)cc3)cc2-c2cc(O)ccc2O)cc1
786-0 renal
  GI50: 5.18 µM
  TGI: 16.7 µM
A549 NSCLC
  GI50: 12.2 µM
  TGI: 30.4 µM
ACHN renal
  GI50: 13.4 µM
  TGI: 26.2 µM
BT-549 breast
  GI50: 23.9 µM
  TGI: 58.3 µM
CAKI-1 renal
  GI50: 7.9 µM
  TGI: 22.8 µM
CCRF-CEM leukemia
  GI50: 3.14 µM
  TGI: 66.6 µM
DU-145 prostate
  GI50: 18.5 µM
  TGI: 35.8 µM
EKVX NSCLC
  GI50: 22.6 µM
  TGI: 45.6 µM
HCC-2998 colon
  GI50: 17.2 µM
  TGI: 31.2 µM
HCT-15 colon
  GI50: 6.28 µM
  TGI: 19.2 µM
HL-60(TB) leukemia
  GI50: 10 µM
  TGI: 69 µM
HOP-92 NSCLC
  GI50: 16 µM
  TGI: 38.9 µM
HS 578T breast
  GI50: 34.2 µM
  TGI: 78.9 µM
IGROV1 ovarian
  GI50: 25.4 µM
  TGI: > 100 µM
K-562 leukemia
  GI50: 4.9 µM
  TGI: 21.2 µM
KM12 colon
  GI50: 13.4 µM
  TGI: 32.6 µM
M14 melanoma
  GI50: 5.82 µM
  TGI: 17.4 µM
MCF7 breast
  GI50: 5.97 µM
  TGI: > 100 µM
MDA-MB-231 breast
  GI50: 3.32 µM
  TGI: 13.9 µM
MDA-MB-435
  GI50: 11.7 µM
  TGI: 28 µM
MOLT-4 leukemia
  GI50: 5.15 µM
  TGI: > 100 µM
NCI-H226 lung
  GI50: 10.1 µM
  TGI: 24.5 µM
NCI-H23 lung
  GI50: 18.3 µM
  TGI: 34.6 µM
NCI-H460 lung
  GI50: 7.81 µM
  TGI: > 100 µM
NCI-H522 lung
  GI50: 2.58 µM
  TGI: 6.71 µM
NCI/ADR-RES ovarian
  GI50: 20.9 µM
  TGI: 47.6 µM
OVCAR-3 ovarian
  GI50: 4.34 µM
  TGI: 13.7 µM
OVCAR-5 ovarian
  GI50: 15.7 µM
  TGI: 31.1 µM
OVCAR-8 ovarian
  GI50: 13.3 µM
  TGI: 58.6 µM
PC-3 prostate
  GI50: 8.37 µM
  TGI: 23.8 µM
RPMI-8226 leukemia
  GI50: 3.15 µM
  TGI: 11.7 µM
SF-268 CNS
  GI50: 10.5 µM
  TGI: 26.2 µM
SF-295 CNS
  GI50: 17.6 µM
  TGI: 33.5 µM
SF-539 CNS
  GI50: 25.4 µM
  TGI: 46.7 µM
SK-MEL-2 melanoma
  GI50: 33.5 µM
  TGI: > 100 µM
SK-MEL-5 melanoma
  GI50: 15.2 µM
  TGI: 32.3 µM
SN12C renal
  GI50: 8.11 µM
  TGI: 20.6 µM
SR leukemia
  GI50: 3.85 µM
  TGI: > 100 µM
SW-620 colon
  GI50: 23.4 µM
  TGI: 89.4 µM
TK-10 renal
  GI50: 10.9 µM
  TGI: 26.1 µM
UACC-257 melanoma
  GI50: 11.1 µM
  TGI: 25.6 µM
UACC-62 melanoma
  GI50: 7.3 µM
  TGI: 19.2 µM
UO-31 renal
  GI50: 26.5 µM
  TGI: > 100 µM
